Patent publication US5792767A, “Bicyclic substituted hexahydrobenz [e] isoindole alpha-1 adrenergic antagonists” (priority 1995, dated 1998)
Structures can show the parent of a compound that is named as a salt.

target: T1, α-1A adrenoceptor (dog prostate); experiment: Functional antagonism of phenylephrine-induced contraction of canine prostate strips; type: cell-based, dog (canine); conditions: vs phenylephrine-induced contraction, Schild plot; read-out: pA2 Dog Prostate [α-1A] (converted)
T1 construct: from tissue; host or cells: canine prostate strips
T1 sequence (P35348 whole entry): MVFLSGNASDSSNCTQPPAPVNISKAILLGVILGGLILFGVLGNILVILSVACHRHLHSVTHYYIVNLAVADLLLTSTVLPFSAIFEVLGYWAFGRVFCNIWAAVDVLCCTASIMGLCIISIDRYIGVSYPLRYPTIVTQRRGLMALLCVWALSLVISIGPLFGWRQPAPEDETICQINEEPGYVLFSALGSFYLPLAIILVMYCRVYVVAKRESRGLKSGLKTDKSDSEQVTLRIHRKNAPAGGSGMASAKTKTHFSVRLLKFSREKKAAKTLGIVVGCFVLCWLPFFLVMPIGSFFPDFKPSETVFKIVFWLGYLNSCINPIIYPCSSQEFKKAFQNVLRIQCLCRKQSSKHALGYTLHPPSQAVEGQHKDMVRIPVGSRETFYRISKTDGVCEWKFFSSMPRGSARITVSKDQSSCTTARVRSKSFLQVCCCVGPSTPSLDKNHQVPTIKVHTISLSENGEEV
Text: Canine prostate strips were used in vitro as previously described (Hieble, J. P., Boyce, A. J. and Caine, M., Fed. Proc., 45: 2609-2614 (1986)), to determine antagonist potencies against phenylephrine-induced contractions.
Functional assays indicative of pharmacologically defined α-1 adrenoceptors were used to further characterize compounds. Inhibition of phenylephrine (PE)-induced contraction of canine prostate smooth muscle can be correlated with α-1A adrenoceptor activation. […] For each of these models, agonist dose response curves were repeated against increasing concentrations of test agent to derive a Schild plot [log ([…]) against log (molarity of test agent)] to determine the pA2.

| Kb [nM] | Structure (SMILES) |
| --- | --- |
| 4.17 | COc1cccc2c1CC[C@H]1CN(CCn3c(=O)[nH]c4c(OC)c(OC)c(OC)cc4c3=O)C[C@@H]21 (relative stereo) [Example 18, 3-[2-(cis-6-Methoxy-2,3,3a,4,5,9b-hexahydro-[1H]-benz[e]isoindol-1-yl)ethyl]-6,7,8-trimethoxy-quinazoline-2,4(1H,3H)-dione hydrochloride] |
| 1.29 | COc1cccc2c1CC[C@H]1CN(CCn3c(=O)[nH]c4cnccc4c3=O)C[C@@H]21 (relative stereo) [Example 24, dihydrochloride] |
| 24 | COc1cccc2c1CC[C@H]1CN(CCn3c(=O)[nH]c4sc(-c5ccccc5)cc4c3=O)C[C@@H]21 (relative stereo) [Example 7, 3-[2-(cis-6-Methoxy-2,3,3a,4,5,9b-hexahydro-[1H]-benz[e]isoindol-1-yl)ethyl]-6-phenyl-thieno[2,3-d]pyrimidine-2,4(1H,3H)-dione hydrochloride] |
| 12.3 | COc1cccc2c1CC[C@H]1CN(CCn3c(=O)[nH]c4scc(C)c4c3=O)C[C@@H]21 (relative stereo) [Example 4, hydrochloride] |
| 2.34 | COc1cccc2c1CC[C@H]1CN(CCn3c(=O)[nH]c4c(C(C)C)c(OC)sc4c3=O)C[C@@H]21 [Example 65, -[2-((3aR,9bR)-cis-6-Methoxy-2,3,3a,4,5,9b-hexahydro-[1H]-benz[e]isoindol-1-yl)ethyl]-6-methoxy-7-isopropylthieno [3,2-d]pyrimidine-2,4(1H,3H)-dione hydrochloride] |
| 4.68 | COc1cc2[nH]c(=O)n(CCCCN3C[C@@H]4CCc5cccc(OC)c5[C@@H]4C3)c(=O)c2cc1OC [Example 67, hydrochloride] |
| 14.1 | COc1cc2c(cc1Cl)c(=O)n(CCN1C[C@@H]3CCc4c(OC)cccc4[C@@H]3C1)c(=O)n2C [Example 51, hydrochloride] |
| 1.2 | COc1cccc2c1CC[C@H]1CN(CCn3c(=O)[nH]c4cc(Cl)ccc4c3=O)C[C@@H]21 (relative stereo) [Example 11, hydrochloride] |
| 0.676 | COc1cccc2c1CC[C@H]1CN(CCn3c(=O)[nH]c4cc(F)ccc4c3=O)C[C@@H]21 (relative stereo) [Example 25, 3-[2-(cis-6-Methoxy-2,3,3a,4,5,9b-hexahydro-[1H]-benz[e]isoindol-1-yl)ethyl]-7-fluoro-quinazoline-2,4(1H,3H)-dione hydrochloride] |
| 3.31 | COC(=O)c1cc2c(=O)n(CCN3C[C@@H]4CCc5c(OC)cccc5[C@@H]4C3)c(=O)[nH]c2s1 [Example 59, hydrochloride] |
| 3.55 | CCOC(=O)c1ccc2c(=O)n(CCN3C[C@@H]4CCc5c(OC)cccc5[C@@H]4C3)c(=O)[nH]c2c1 [Example 71, hydrochloride] |
| 47.9 | COc1cccc2c1CC[C@H]1CN(CCn3c(=O)[nH]c4scc(-c5ccccc5)c4c3=O)C[C@@H]21 (relative stereo) [Example 6, hydrochloride] |
| 0.631 | COc1ccc2c(=O)n(CCN3C[C@@H]4CCc5c(OC)cccc5[C@@H]4C3)c(=O)n(C)c2c1 [Example 50, hydrochloride] |
| 8.13 | COc1cccc2c1CC[C@H]1CN(CCn3c(=O)[nH]c4c(-c5ccccc5C)csc4c3=O)C[C@@H]21 [Example 84, hydrochloride] |
| 5.37 | COc1cccc2c1CC[C@H]1CN(CCN3Cc4ccccc4NC3=O)C[C@@H]21 [Example 44, hydrochloride] |
| 1.15 | COc1ccc2[nH]c(=O)n(CCN3C[C@@H]4CCc5c(OC)cccc5[C@@H]4C3)c(=O)c2c1 (relative stereo) [Example 17, hydrochloride] |
| 0.891 | COc1cccc2c1CC[C@H]1CN(CCn3c(=O)[nH]c4c5c(ccc4c3=O)OCO5)C[C@@H]21 [Example 54, hydrochloride] |

| Kb [nM] | Structure (SMILES) |
| --- | --- |
| 1.15 | COc1cccc2c1CC[C@H]1CN(CCn3c(=O)[nH]c4[nH]ccc4c3=O)C[C@@H]21 (relative stereo) [Example 30] |
| 1.51 | COc1cccc2c1CC[C@H]1CN(CCn3c(=O)[nH]c4cccnc4c3=O)C[C@@H]21 (relative stereo) [Example 22, hydrochloride] |
| 2.57 | COc1cccc2c1CC[C@H]1CN(CCn3c(=O)[nH]c4c(-c5ccccc5)c(OC)sc4c3=O)C[C@@H]21 [Example 62, hydrochloride] |
| 0.589 | COc1cccc2c1CC[C@H]1CN(CCn3c(=O)c4ccccc4n(C)c3=O)C[C@@H]21 (relative stereo) [Example 26, hydrochloride] |
| 12.3 | COc1cccc2c1CC[C@H]1CN(CCn3c(=O)[nH]c4ccc([N+](=O)[O-])cc4c3=O)C[C@@H]21 (relative stereo) [Example 16, hydrochloride] |
| 7.24 | COc1cccc2c1CC[C@H]1CN(CCn3cnc4c(C)c(C)ccc4c3=O)C[C@@H]21 [Example 57, dihydrochloride] |
| 1.7 | COc1cccc2c1CC[C@H]1CN(CCn3c(=O)[nH]c4cc([N+](=O)[O-])ccc4c3=O)C[C@@H]21 [Example 74, hydrochloride] |
| 1.15 | COc1cccc2c1CC[C@H]1CN(CCn3c(=O)[nH]c4c(C)c(C)cnc4c3=O)C[C@@H]21 [Example 66, dihydrochloride] |
| 1.29 | COc1cccc2c1CC[C@H]1CN(CCn3c(=O)[nH]c4nccnc4c3=O)C[C@@H]21 [Example 87, 3-[2-((3aR,9bR)cis-6-Methoxy-2,3 3a,4,5,9b-hexahydro-[1H]-benz[e]isoindol-1-yl)ethyl]-2,4pteridinedione hydrochloride] |
| 4.9 | COc1cccc2c1CC[C@H]1CN(CCn3c(=O)oc4cc5c(cc4c3=O)OCO5)C[C@@H]21 [Example 55, hydrochloride] |
| 0.977 | COc1cccc2c1CC[C@H]1CN(CCn3c(=O)[nH]c4ccccc4c3=O)C[C@@H]21 [Example 79, hydrochloride] |
| 1.23 | COc1cccc2c1CC[C@H]1CN(CCn3c(=O)[nH]c4sc(C)cc4c3=O)C[C@@H]21 (relative stereo) [Example 29, hydrochloride] |
| 0.575 | COC(=O)c1ccc2c(=O)n(CCN3C[C@@H]4CCc5c(OC)cccc5[C@@H]4C3)c(=O)[nH]c2c1 [Example 69, hydrochloride] |
| 1.23 | COc1cccc2c1CC[C@H]1CN(CCn3c(=O)[nH]c4cc(C(=O)OC(C)C)ccc4c3=O)C[C@@H]21 [Example 73, hydrochloride] |
| 1.48 | COc1cccc2c1CC[C@H]1CN(CCn3c(=O)[nH]c4c(C)cc(C)cc4c3=O)C[C@@H]21 (relative stereo) [Example 20, hydrochloride] |
| 0.575 | COc1cccc2c1CC[C@H]1CN(CCn3c(=O)[nH]c4cc(C(N)=O)ccc4c3=O)C[C@@H]21 [Example 46, hydrochloride] |
| 2.82 | COc1ccccc1-c1csc2c(=O)n(CCN3C[C@@H]4CCc5c(OC)cccc5[C@@H]4C3)c(=O)[nH]c12 [Example 85, 3-[2-((3aR,9bR)cis-6-Methoxy-2,3,3a,4,5,9b-hexahydro-[1H]-benz[e]isoindol-1-yl)ethyl]-7-(2-methoxyphenyl)thieno[3.2-d]pyrimidine-2,4(1H,3H)-dione hydrochloride] |
